Results taken from publication PMC9860980, “Pharmacokinetics and Pharmacodynamics (PK/PD) of Corallopyronin A against Methicillin-Resistant Staphylococcus aureus” (Pharmaceutics, 2022).

Tests used:
[1] = Biodistribution of CorA to organs/tissues of CD-1 mice (LC-MS/MS); format: in vivo
Experimental: For pharmacokinetic (PK) experiments, 6–8-week-old outbred female CD-1 mice (Charles River, Germany) were used. CorA was dissolved in PEG400/phosphate-buffered saline (PBS) (80:20 (v/v)). CorA was administered once daily at 60 mg/kg intraperitoneally (IP), 100 mg/kg IP, 100 mg/kg subcutaneously (SC) and 100 mg/kg perorally (PO). Moreover, CorA was administered at 30 mg/kg IP twice a day (BID) (administration time points t = 0 and 6 h after first dose). Animals (n = 3 per time point) receiving either 60 mg/kg IP or 100 mg/kg IP were euthanized at 10, 15, 30, 60 and 180 min after administration. Animals (n = 3 per time point) receiving 30 mg/kg IP BID were euthanized at 0.167, 0.25, 0.5, 1, 3, 5.75, 6.167, 6.25, 6.5, 7 and 9 h after first administration. Animals (n = 3 per time point) receiving 100 mg/kg SC or 100 mg/kg PO were euthanized at 0.25, 1, 2, 4 and 8 h after administration. At every time point blood was removed from the heart, collected into tubes coated with 0.5 M ethylenediaminetetraacetic acid (EDTA), immediately spun down at 15,870× g for 10 min at 4 °C and the resultant plasma transferred into a new tube. Furthermore, at every time point heart, lung, brain, liver, spleen, kidneys, and thigh muscles were removed and frozen in liquid nitrogen. For animals receiving 100 mg/kg PO also rectum (without feces), pharynx, skin, vaginal tract, subcutaneous fat tissue, visceral fat tissue and tibiae were removed and frozen in liquid nitrogen. Before removing the vaginal tract, a vaginal flush was performed.
Caffeine was used as an internal standard.

MRSA = settings: against MRSA; cited from earlier work

C/C=C/C/C=C(\C)C(O)CC/C(C)=C/C=C(\C)C(=O)c1c(O)cc([C@H](C)CC/C=C/NC(=O)OC)oc1=O (stereo partly drawn) [CorA, Corallopyronin A]
CorA in vaginal flush ([1]; 100 mg/kg PO): not found
time initial peak concentrations in tissue are above the MIC ([1]; IP dosing): 2 to 3 h
AUC ([1]; brain, 30 mg/kg IP): 0.05 µg·h/g
AUC ([1]; brain, 60 mg/kg IP): 0.10 µg·h/g
AUC ([1]; brain, 100 mg/kg IP): 0.10 µg·h/g
AUC ([1]; brain, 100 mg/kg SC): 0.24 µg·h/g
time tissue concentration exceeds the in vitro MIC against MRSA ([1]; female, CD-1, mouse, in vivo, sc, 100 mg/kg): more than 9 h
Cmax ([1]; female, CD-1, mouse, thigh muscle, thigh, 30 mg/kg IP): 100 ng/g
Cmax ([1]; female, CD-1, mouse, thigh muscle, thigh, 60 mg/kg IP): 300 ng/g
Cmax ([1]; female, CD-1, mouse, thigh muscle, thigh, 100 mg/kg IP): 700 ng/g
Tmax ([1]; female, CD-1, mouse, 100 mg/kg PO, thigh, heart, kidney, spleen, lung, liver, fat, rectum, pharynx, vaginal tract, skin, tibia, read-out: time of peak concentration in the investigated tissues): 15 to 30 min
Cmax ([1]; female, CD-1, mouse, brain, 30 mg/kg IP): 40 ng/g
Cmax ([1]; female, CD-1, mouse, brain, 60 mg/kg IP): 70 ng/g
Cmax ([1]; female, CD-1, mouse, brain, 100 mg/kg IP): 100 ng/g
Cmax ([1]; female, CD-1, mouse, brain, 100 mg/kg SC): 150 ng/g
Cmax ([1]; female, CD-1, mouse, heart, 30 mg/kg IP): 1100 ng/g
Cmax ([1]; female, CD-1, mouse, heart, 60 mg/kg IP): 1800 ng/g
Cmax ([1]; female, CD-1, mouse, heart, 100 mg/kg IP): 3100 ng/g
Cmax ([1]; female, CD-1, mouse, heart, 100 mg/kg SC): 1480 ng/g
Cmax ([1]; female, CD-1, mouse, kidney, 30 mg/kg IP): 700 ng/g
Cmax ([1]; female, CD-1, mouse, kidney, 60 mg/kg IP): 1200 ng/g
Cmax ([1]; female, CD-1, mouse, kidney, 100 mg/kg IP): 1800 ng/g
Cmax ([1]; female, CD-1, mouse, kidney, 100 mg/kg SC): 1760 ng/g
Cmax ([1]; female, CD-1, mouse, liver, 30 mg/kg IP): 310 ng/g
Cmax ([1]; female, CD-1, mouse, liver, 60 mg/kg IP): 430 ng/g
Cmax ([1]; female, CD-1, mouse, liver, 100 mg/kg IP): 610 ng/g
Cmax ([1]; female, CD-1, mouse, liver, 100 mg/kg SC): 2300 ng/g
Cmax ([1]; female, CD-1, mouse, lung, 30 mg/kg IP): 1500 ng/g
Cmax ([1]; female, CD-1, mouse, lung, 60 mg/kg IP): 3100 ng/g
Cmax ([1]; female, CD-1, mouse, lung, 100 mg/kg IP): 4800 ng/g
Cmax ([1]; female, CD-1, mouse, lung, 100 mg/kg SC): 1270 ng/g
Cmax ([1]; female, CD-1, mouse, spleen, 30 mg/kg IP): 1400 ng/g
Cmax ([1]; female, CD-1, mouse, spleen, 60 mg/kg IP): 2100 ng/g
Cmax ([1]; female, CD-1, mouse, spleen, 100 mg/kg IP): 4900 ng/g
Cmax ([1]; female, CD-1, mouse, spleen, 100 mg/kg SC): 600 ng/g
AUC ([1]; heart, 30 mg/kg IP): 1.08 µg·h/g
AUC ([1]; heart, 60 mg/kg IP): 1.83 µg·h/g
AUC ([1]; heart, 100 mg/kg IP): 2.10 µg·h/g
AUC ([1]; heart, 100 mg/kg SC): 3.53 µg·h/g
AUC ([1]; kidney, 30 mg/kg IP): 0.49 µg·h/g
AUC ([1]; kidney, 60 mg/kg IP): 0.95 µg·h/g
AUC ([1]; kidney, 100 mg/kg IP): 1.01 µg·h/g
AUC ([1]; kidney, 100 mg/kg SC): 5.61 µg·h/g
AUC ([1]; liver, 30 mg/kg IP): 0.40 µg·h/g
AUC ([1]; liver, 60 mg/kg IP): 0.57 µg·h/g
AUC ([1]; liver, 100 mg/kg IP): 0.59 µg·h/g
AUC ([1]; liver, 100 mg/kg SC): 12.44 µg·h/g
AUC ([1]; lung, 30 mg/kg IP): 1.2 µg·h/g
AUC ([1]; lung, 60 mg/kg IP): 3.56 µg·h/g
AUC ([1]; lung, 100 mg/kg IP): 2.67 µg·h/g
AUC ([1]; lung, 100 mg/kg SC): 3.85 µg·h/g
time CorA levels above the MIC ([1]; lung, 100 mg/kg SC): ~ 4 h
time CorA levels exceed the in vitro MIC ([1]; lung, all three doses administered IP (30, 60, 100 mg/kg)): around 3 h
AUC ([1]; spleen, 30 mg/kg IP): 0.77 µg·h/g
AUC ([1]; spleen, 60 mg/kg IP): 1.34 µg·h/g
AUC ([1]; spleen, 100 mg/kg IP): 2.55 µg·h/g
AUC ([1]; spleen, 100 mg/kg SC): 1.4 µg·h/g
AUC ([1]; thigh, 30 mg/kg IP): 0.19 µg·h/g
time CorA levels exceed the MIC ([1]; thigh, 30 mg/kg IP): about one hour
AUC ([1]; thigh, 60 mg/kg IP): 0.49 µg·h/g
time CorA levels above the MIC ([1]; thigh, 60 mg/kg IP): around 3 h
AUC ([1]; thigh, 100 mg/kg IP): 0.60 µg·h/g
time CorA levels above the MIC ([1]; thigh, 100 mg/kg IP): around 3 h
peak concentrations in thigh above the in vitro determined MIC ([1]; thigh, 100 mg/kg IP, MIC 0.125 µg/mL): 3–5 ×
CorA levels in thigh tissue ([1]; thigh, 100 mg/kg SC): no CorA levels were detected
in vitro minimal inhibitory concentration (MIC) (MRSA): 0.125 µg/mL
